What was measured:
Wee1 = molecular target: T1, Wee1 (Homo sapiens, UniProt P30291); test: In vitro enzyme inhibitory activity, Wee1 kinase radiometric ([33P]-ATP) assay at Eurofins; format: biochemical; details: in vitro enzymatic activity; 40 min at room temperature, peptide substrate 500 μM
T1 construct: Eurofins
Experimental: The compounds used for experiments were all prepared in-house, and their chemical names and structural formulas were shown in the preparation examples for each compound. The experimental tests were carried out in Eurofins, which provided the experimental results.
In the Wee1 reaction system, 20 mM Tris-HCl, pH 8.5, 0.2 mM EDTA, 500 μM polypeptide substrate ([…]) (Sequence ID No. 1), 10 mM magnesium acetate and a certain concentration of […] (intensity of about 500 cpm/pmol) were added. Addition of Mg^2+ and ATP mixed solution initiated the reaction. Incubation was performed at room temperature for 40 min and 3% phosphate buffer was added to terminate the reaction. 10 μL of the reaction solution was filtered on a continuous filter P30, and washed with 75 mM phosphate buffer three times, and washed with methanol once, 5 min for each time. After drying, the scintillation counting was used to read the values.

[1] = tested on: Human pancreatic cancer PC-07-0049 subcutaneously transplanted tumor; test: In vivo pharmacodynamics study on human pancreatic cancer PC-07-0049 subcutaneously transplanted tumor model in nude mice; set-up: species or system BALB/c nude mice; details: for TGI (%): PC-07-0049 tumor in BALB/c nude mice
Source text: Procedures: The selected experimental animals were BALB/c nude mice (6 animals per group), 6-8 weeks old, weigh 16-21 grams.
The establishment of the Human pancreatic carcinoma PC-07-0049 model was originally derived from surgically excised clinical samples, which was defined as the P0 generation after implantation in nude mice. The implantation of the tumor tissue of P0 generation into the next generation was defined as the P1 generation. The implantation was continued in nude mice in this way. The tumor of FP3 was revived through the P2 generation. The next generation generated by the FP3 generation was defined as FP4, and so on. The tumor tissue of the FP5 generation will be used for the drug efficacy test.
The PC-07-0049 FP5 tumor tissue was cut into small pieces (20-30 mm^3) after removing the necrotic tissue and was inoculated subcutaneously on the right back of each nude mouse. When the average tumor volume reached about 193 mm^3, according to the tumor volume, the animals were divided into random groups and administered.
The experimental index was to investigate whether tumor growth was inhibited, delayed or cured. The diameters of the tumors were measured with a vernier caliper twice a week. The tumor suppression efficacy of the compound was evaluated by TGI (%) or the relative tumor proliferation rate T/C (%). TGI (%) reflects the tumor growth inhibition rate. Calculation of TGI (%): TGI (%)=[(1−(Average tumor volume at the end of a treatment group−average tumor volume at the beginning of the treatment group))/(Average tumor volume at the end of treatment in the solvent control group−the average tumor volume at the beginning of treatment in the solvent control group)]×100%.

T1 sequence (P30291 whole entry): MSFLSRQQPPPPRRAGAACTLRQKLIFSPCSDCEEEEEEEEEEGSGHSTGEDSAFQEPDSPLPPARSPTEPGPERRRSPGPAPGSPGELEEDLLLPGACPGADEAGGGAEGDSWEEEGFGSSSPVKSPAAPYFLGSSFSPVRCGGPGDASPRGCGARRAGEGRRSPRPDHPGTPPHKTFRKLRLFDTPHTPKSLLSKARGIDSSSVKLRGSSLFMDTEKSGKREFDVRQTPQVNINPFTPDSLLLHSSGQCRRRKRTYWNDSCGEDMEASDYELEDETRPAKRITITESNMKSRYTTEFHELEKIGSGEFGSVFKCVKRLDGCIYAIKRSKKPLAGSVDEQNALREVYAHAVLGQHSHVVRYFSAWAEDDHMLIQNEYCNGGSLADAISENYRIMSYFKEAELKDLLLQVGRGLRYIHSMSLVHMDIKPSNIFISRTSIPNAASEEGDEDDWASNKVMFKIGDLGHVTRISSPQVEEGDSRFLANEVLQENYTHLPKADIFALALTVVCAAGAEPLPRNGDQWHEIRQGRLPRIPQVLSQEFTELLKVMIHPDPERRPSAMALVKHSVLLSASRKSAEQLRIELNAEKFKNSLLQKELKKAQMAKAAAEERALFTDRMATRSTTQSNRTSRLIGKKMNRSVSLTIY

| IC50 (Wee1) | SMILES | other results |
| --- | --- | --- |
| 130 nM | C/C1=C/CC[C@@](C)(O)c2cccc(n2)-n2c3nc(Nc4ccc(N5CCN(C)CC5)cc4)ncc3c(=O)n2C1 [Compound 1] | – |
| 37 nM | CN1CCC(n2ccc3cc(Nc4ncc5c(=O)n6n(c5n4)-c4cccc(n4)[C@](C)(O)CC/C=C(/F)C6)ccc32)CC1 [Compound 2] | – |
| 28 nM | CN1CCN(c2ccc(Nc3ncc4c(=O)n5n(c4n3)-c3cccc(n3)[C@](C)(O)CC/C=C(/F)C5)cc2)CC1 [Compound 3] | inhibitory effect on mouse tumor (in words) ([1]; combination of compound 3 and gemcitabine compared with gemcitabine alone, conclusion drawn from Table 2): significantly improve the inhibitory effect on mouse tumor; TGI (%) ([1]; compound 3 50 mg/kg once per day in combination with gemcitabine 20 mg/kg twice per week): 102% |
| 110 nM | CN1CCN(c2ccc(Nc3ncc4c(=O)n5n(c4n3)-c3cccc(n3)[C@@](C)(O)CC/C=C(/F)C5)cc2)CC1 [Compound 4] | – |
| 43 nM | CN1CCN(c2ccc(Nc3ncc4c(=O)n5n(c4n3)-c3cccc(n3)[C@](C)(O)CC/C=C(\F)C5)cc2)CC1 [Compound 5] | – |
| – | Nc1ccn([C@@H]2O[C@H](CO)[C@@H](O)C2(F)F)c(=O)n1 [Gemcitabine, reference compound] | TGI (%) ([1]; gemcitabine alone, 20 mg/kg twice per week): 58% |

From patent publication US12180184B2, “Pyrimidopyrazolone derivative as Wee1 inhibitor and use thereof” (Wuxi Biocity Biopharmaceutics Co., Ltd., priority 2018, dated 2024)
